Tested on: male Zucker Fatty Rats
Experiment: In vivo activity in glucose tolerance model (oral glucose challenge)
Parameters: species or system rat
Settings: mean ± SE, n = 4; for Blood glucose, t = 10: t = 10 minutes; for Blood glucose, t = 20: t = 20 minutes; for Blood glucose, t = 30: t = 30 minutes; for Blood glucose, t = 60: t = 60 minutes; for Blood glucose, t = 120: t = 120 minutes
Method: The activity of the compounds was investigated in male Zucker Fatty Rats between 10 and 20 weeks of age. The animals were fasted overnight and then administered with the test compound (10 mg/kg) as a solution by oral gavage. One hour later hour a blood sample (200 μl) is taken from the tail vein to establish a baseline (t=0) glucose level, then the animals are given glucose (1 g/kg as a 40% wt/vol solution) orally. Further blood samples are taken at t=10, 20, 30, 60 and 120 minutes. Glucose is determined by an enzymatic assay.
In a separate experiment the test compound was given at the same dose (10 mg/kg) but 12 hours before the oral glucose challenge.

[1] = 10 mg/kg oral gavage 1 hour before oral glucose (1 g/kg), baseline t = 0
[2] = 10 mg/kg oral gavage 1 hour before oral glucose (1 g/kg)
[3] = 10 mg/kg given 12 hours before the oral glucose challenge

Row | SMILES | Blood glucose, t = 0 [1] [mg/dL] | Blood glucose, t = 10 [2] [mg/dL] | Blood glucose, t = 20 [2] [mg/dL] | Blood glucose, t = 30 [2] [mg/dL] | Blood glucose, t = 60 [2] [mg/dL] | Blood glucose, t = 120 [2] [mg/dL] | AUC (area under the concentration-time curve) of blood glucose [3] | Blood glucose, t = 0 (10 mg/kg given 12 hours before the oral glucose challenge, t = 0) [mg/dL] | Blood glucose, t = 10 [3] [mg/dL] | Blood glucose, t = 20 [3] [mg/dL] | Blood glucose, t = 30 [3] [mg/dL] | Blood glucose, t = 60 [3] [mg/dL] | Blood glucose, t = 120 [3] [mg/dL]
1 | CC[C@H](C)[C@H](N)C(=O)N1CCC[C@H]1C#N [Reference, (2S)-1-(Isoleucyl)pyrrolidine-2-carbonitrile, reference compound] | 91.4 ± 5.2 | 125.8 ± 8.9 | 110.0 ± 21.5 | 110.9 ± 4.4 | 112.2 ± 7.5 | 108.7 ± 8.9 | – | – | – | – | – | – | –
2 | CC[C@H](C)[C@H](NC(=O)CN)C(=O)N1CCC[C@H]1C#N [Example 5, (2S)-1-(Glycylisoleucyl)pyrrolidine-2-carbonitrile] | 80.5 ± 1.4 | 141.3 ± 14.5 | 134.2 ± 10.3 | 129.2 ± 8.2 | 114.6 ± 8.1 | 121.2 ± 5.8 | – | – | – | – | – | – | –
3 | CC(=O)OC(C)OC(=O)N[C@H](C(=O)N1CCC[C@H]1C#N)C(C)(C)C (stereo partly drawn) [Example 1, (2S)-1-((2′S)-2′-(1″-Acetoxyethoxycarbonylamino)-3′,3′-dimethylbutanoyl)pyrrolidine-2-carbonitrile] | – | – | – | – | – | – | 2430 ± 591 | 83.7 ± 3.8 | 113.5 ± 10.8 | 111.3 ± 9.9 | 91.9 ± 11.8 | 99.3 ± 10.0 | 116.9 ± 14.4
4 | CC[C@H](C)[C@H](NC(=O)OC)C(=O)N1CCC[C@H]1C#N [Example 3, (2S)-1-(N′-(Methoxycarbonyl)isoleucyl)pyrrolidine-2-carbonitrile] | 86.4 ± 3.4 | 175.1 ± 3.8 | 148.5 ± 23.2 | 136.7 ± 16.9 | 120.6 ± 8.3 | 101.9 ± 4.5 | – | – | – | – | – | – | –
5 | CC[C@H](C)[C@H](NC(=O)OC(C)OC(C)=O)C(=O)N1CCC[C@H]1C#N (stereo partly drawn) [Example 2, (2S)-1-(N′-(1″-Acetoxyethoxycarbonyl)isoleucyl)pyrrolidine-2-carbonitrile] | 80.2 ± 4.2 | 122.2 ± 7.8 | 117.8 ± 4.8 | 104.4 ± 5.6 | 117.6 ± 6.7 | 111.3 ± 12.1 | – | – | – | – | – | – | –

From US7169806B2, “Antidiabetic agents” (Ferring BV, priority 1999, dated 2007)
